Assays:
Assay in all cases: biochemical
Assay type in all cases: biochemical
382 unique human kinases [1] = target: T1, 382 unique human kinases (Homo sapiens, UniProt P00533, G719C); conditions: kinase EGFR (G719C), compound 10 uM; for remaining activity at 10 µM: read-out: % Enzyme Activity (relative to DMSO controls)
T1 construct: purchased Reaction Biology (HotSpot contract assay)

382 unique human kinases [2] = target: T2, 382 unique human kinases (Homo sapiens, UniProt P00533, L858R); conditions: kinase EGFR (L858R), compound 10 uM; for remaining activity at 10 µM: read-out: % Enzyme Activity (relative to DMSO controls)
T2 construct: purchased Reaction Biology (HotSpot contract assay)

382 unique human kinases [3] = target: T3, 382 unique human kinases (Homo sapiens, UniProt P37173); conditions: kinase TGFBR2, compound 10 uM; for remaining activity at 10 µM: read-out: % Enzyme Activity (relative to DMSO controls)
T3 construct: purchased Reaction Biology (HotSpot contract assay)

382 unique human kinases [4] = target: T4, 382 unique human kinases (Homo sapiens, UniProt P41240); conditions: CSK, 10 uM; for remaining activity at 10 µM: read-out: % Enzyme Activity (relative to DMSO controls)
T4 construct: purchased Reaction Biology (HotSpot contract assay)

382 unique human kinases [5] = target: T5, 382 unique human kinases (Homo sapiens, UniProt O75385); conditions: ULK1, 10 uM; for remaining activity at 10 µM: read-out: % Enzyme Activity (relative to DMSO controls)
T5 construct: purchased Reaction Biology (HotSpot contract assay)
T5 sequence (O75385 1-1050): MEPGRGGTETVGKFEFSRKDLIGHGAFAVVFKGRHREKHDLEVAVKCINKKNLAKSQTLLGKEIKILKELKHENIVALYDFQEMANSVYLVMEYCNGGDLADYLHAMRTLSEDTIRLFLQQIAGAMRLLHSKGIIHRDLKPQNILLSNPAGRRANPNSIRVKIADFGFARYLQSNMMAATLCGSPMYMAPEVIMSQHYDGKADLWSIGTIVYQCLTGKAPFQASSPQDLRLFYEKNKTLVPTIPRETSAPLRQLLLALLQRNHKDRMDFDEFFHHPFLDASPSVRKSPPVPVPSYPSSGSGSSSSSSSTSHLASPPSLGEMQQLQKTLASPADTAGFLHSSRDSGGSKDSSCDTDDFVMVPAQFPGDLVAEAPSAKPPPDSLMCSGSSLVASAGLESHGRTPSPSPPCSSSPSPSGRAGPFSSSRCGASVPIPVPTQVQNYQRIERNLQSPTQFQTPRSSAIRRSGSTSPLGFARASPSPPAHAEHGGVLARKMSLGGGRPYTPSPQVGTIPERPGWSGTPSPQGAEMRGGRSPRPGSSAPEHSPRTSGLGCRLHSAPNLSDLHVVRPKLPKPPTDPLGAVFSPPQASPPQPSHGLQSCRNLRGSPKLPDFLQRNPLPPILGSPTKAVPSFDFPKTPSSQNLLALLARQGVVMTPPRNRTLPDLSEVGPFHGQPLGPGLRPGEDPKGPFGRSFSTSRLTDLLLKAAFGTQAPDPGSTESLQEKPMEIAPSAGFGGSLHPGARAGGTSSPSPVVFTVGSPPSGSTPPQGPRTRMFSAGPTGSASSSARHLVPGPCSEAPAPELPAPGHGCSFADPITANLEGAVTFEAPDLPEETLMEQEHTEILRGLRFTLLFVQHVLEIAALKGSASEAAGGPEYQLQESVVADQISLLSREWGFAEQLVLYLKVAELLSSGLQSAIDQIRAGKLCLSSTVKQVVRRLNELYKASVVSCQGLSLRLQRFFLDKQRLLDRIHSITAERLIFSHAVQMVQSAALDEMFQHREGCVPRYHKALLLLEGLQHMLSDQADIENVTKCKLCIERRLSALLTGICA

382 unique human kinases [6] = target: T6, 382 unique human kinases (Homo sapiens, UniProt Q6XUX3); conditions: RIPK5, 10 uM; for remaining activity at 10 µM: read-out: % Enzyme Activity (relative to DMSO controls)
T6 construct: purchased Reaction Biology (HotSpot contract assay)
T6 sequence (Q6XUX3 1-929): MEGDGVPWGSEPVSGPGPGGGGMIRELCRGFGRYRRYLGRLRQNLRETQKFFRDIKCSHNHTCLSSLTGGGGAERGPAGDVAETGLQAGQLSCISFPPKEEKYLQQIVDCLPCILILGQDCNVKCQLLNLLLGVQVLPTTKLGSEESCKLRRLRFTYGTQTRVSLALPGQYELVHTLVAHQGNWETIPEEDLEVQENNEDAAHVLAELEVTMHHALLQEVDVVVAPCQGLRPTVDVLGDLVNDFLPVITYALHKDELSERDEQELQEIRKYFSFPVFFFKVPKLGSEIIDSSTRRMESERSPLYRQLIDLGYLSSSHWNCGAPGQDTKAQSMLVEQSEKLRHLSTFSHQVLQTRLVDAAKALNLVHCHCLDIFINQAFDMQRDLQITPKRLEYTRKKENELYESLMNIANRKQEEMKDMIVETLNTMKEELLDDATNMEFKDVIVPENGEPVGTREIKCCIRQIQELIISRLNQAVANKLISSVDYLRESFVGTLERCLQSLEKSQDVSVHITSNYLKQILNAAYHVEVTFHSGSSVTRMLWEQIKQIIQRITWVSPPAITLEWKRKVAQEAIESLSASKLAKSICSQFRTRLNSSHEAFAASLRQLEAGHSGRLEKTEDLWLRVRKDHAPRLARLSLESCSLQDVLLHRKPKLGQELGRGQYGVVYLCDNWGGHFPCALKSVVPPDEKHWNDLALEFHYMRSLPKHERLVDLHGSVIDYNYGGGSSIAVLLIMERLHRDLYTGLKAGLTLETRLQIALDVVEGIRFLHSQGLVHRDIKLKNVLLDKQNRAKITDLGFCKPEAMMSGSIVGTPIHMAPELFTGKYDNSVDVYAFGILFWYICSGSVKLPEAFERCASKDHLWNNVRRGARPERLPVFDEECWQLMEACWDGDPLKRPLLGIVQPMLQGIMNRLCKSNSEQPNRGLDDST

382 unique human kinases [7] = target: T7, 382 unique human kinases (Homo sapiens, UniProt O75116); conditions: ROCK2, 10 uM; for remaining activity at 10 µM: read-out: % Enzyme Activity (relative to DMSO controls)
T7 construct: purchased Reaction Biology (HotSpot contract assay)

382 unique human kinases [8] = target: T8, 382 unique human kinases (Homo sapiens, UniProt P07949, V778I); conditions: RET (V778I), [ATP] 10 µM, compound 10 uM; for remaining activity at 10 µM: read-out: % Enzyme Activity (relative to DMSO controls)
T8 construct: purchased Reaction Biology (HotSpot contract assay)

382 unique human kinases [9] = target: T9, 382 unique human kinases (Homo sapiens, UniProt P80192); conditions: MLK1/MAP3K9, 10 uM; for remaining activity at 10 µM: read-out: % Enzyme Activity (relative to DMSO controls)
T9 construct: purchased Reaction Biology (HotSpot contract assay)

382 unique human kinases [10] = target: T10, 382 unique human kinases (Homo sapiens, UniProt Q5TCX8); conditions: MLK4, 10 uM; for remaining activity at 10 µM: read-out: % Enzyme Activity (relative to DMSO controls)
T10 construct: purchased Reaction Biology (HotSpot contract assay)

382 unique human kinases [11] = target: T11, 382 unique human kinases (Homo sapiens, UniProt P12931); conditions: c-Src, [ATP] 15 µM
T11 construct: purchased Reaction Biology (HotSpot contract assay)

382 unique human kinases [12] = target: T12, 382 unique human kinases (Homo sapiens, UniProt Q9UM73, S1206R); conditions: ALK (S1206R), [ATP] 20 µM, compound 10 uM; for remaining activity at 10 µM: read-out: % Enzyme Activity (relative to DMSO controls)
T12 construct: purchased Reaction Biology (HotSpot contract assay)

[13] = compound 10 uM, read-out: % Enzyme Activity (relative to DMSO controls)

T12 sequence (Q9UM73 19-1620 S1206R): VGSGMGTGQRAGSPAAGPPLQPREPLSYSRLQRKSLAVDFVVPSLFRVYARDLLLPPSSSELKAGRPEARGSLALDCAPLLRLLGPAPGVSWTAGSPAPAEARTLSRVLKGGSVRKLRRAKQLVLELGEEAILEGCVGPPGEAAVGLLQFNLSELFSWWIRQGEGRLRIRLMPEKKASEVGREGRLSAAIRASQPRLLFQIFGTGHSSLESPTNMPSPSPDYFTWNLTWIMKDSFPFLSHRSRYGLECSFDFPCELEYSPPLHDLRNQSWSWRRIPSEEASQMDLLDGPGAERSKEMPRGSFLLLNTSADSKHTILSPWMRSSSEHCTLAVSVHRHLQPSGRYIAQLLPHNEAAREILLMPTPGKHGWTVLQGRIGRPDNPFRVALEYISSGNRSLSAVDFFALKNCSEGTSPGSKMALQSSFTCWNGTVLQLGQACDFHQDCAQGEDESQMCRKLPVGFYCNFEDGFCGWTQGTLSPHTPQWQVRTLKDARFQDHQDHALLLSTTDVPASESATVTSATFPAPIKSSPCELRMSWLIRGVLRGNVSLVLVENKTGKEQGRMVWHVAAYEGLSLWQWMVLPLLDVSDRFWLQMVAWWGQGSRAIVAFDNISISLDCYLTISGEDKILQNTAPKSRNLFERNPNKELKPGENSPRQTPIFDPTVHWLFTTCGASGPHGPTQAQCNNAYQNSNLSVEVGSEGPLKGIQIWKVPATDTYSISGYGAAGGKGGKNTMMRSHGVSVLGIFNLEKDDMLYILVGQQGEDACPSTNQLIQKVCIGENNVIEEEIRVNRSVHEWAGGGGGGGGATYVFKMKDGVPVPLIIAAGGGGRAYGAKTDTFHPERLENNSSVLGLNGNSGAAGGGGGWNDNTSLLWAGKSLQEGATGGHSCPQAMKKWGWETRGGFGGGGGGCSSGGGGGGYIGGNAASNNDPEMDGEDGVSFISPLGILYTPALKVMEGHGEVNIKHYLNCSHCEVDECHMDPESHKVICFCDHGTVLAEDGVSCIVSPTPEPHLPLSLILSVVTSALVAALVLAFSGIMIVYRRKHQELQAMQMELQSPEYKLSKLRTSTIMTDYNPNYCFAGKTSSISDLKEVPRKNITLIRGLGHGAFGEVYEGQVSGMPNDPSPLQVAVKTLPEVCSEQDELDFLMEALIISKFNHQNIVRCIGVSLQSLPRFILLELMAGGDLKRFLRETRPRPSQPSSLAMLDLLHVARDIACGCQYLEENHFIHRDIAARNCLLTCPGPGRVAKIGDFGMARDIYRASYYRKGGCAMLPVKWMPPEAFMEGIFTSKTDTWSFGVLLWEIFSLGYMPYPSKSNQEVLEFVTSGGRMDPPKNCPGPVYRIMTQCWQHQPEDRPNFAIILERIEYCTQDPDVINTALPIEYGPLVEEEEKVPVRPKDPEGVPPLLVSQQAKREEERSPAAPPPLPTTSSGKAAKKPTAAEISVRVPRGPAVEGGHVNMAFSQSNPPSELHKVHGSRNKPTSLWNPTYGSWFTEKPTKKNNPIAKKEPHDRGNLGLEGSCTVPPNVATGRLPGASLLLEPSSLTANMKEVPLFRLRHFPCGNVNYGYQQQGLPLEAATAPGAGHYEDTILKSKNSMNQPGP
T8 sequence (P07949 29-1114 V778I): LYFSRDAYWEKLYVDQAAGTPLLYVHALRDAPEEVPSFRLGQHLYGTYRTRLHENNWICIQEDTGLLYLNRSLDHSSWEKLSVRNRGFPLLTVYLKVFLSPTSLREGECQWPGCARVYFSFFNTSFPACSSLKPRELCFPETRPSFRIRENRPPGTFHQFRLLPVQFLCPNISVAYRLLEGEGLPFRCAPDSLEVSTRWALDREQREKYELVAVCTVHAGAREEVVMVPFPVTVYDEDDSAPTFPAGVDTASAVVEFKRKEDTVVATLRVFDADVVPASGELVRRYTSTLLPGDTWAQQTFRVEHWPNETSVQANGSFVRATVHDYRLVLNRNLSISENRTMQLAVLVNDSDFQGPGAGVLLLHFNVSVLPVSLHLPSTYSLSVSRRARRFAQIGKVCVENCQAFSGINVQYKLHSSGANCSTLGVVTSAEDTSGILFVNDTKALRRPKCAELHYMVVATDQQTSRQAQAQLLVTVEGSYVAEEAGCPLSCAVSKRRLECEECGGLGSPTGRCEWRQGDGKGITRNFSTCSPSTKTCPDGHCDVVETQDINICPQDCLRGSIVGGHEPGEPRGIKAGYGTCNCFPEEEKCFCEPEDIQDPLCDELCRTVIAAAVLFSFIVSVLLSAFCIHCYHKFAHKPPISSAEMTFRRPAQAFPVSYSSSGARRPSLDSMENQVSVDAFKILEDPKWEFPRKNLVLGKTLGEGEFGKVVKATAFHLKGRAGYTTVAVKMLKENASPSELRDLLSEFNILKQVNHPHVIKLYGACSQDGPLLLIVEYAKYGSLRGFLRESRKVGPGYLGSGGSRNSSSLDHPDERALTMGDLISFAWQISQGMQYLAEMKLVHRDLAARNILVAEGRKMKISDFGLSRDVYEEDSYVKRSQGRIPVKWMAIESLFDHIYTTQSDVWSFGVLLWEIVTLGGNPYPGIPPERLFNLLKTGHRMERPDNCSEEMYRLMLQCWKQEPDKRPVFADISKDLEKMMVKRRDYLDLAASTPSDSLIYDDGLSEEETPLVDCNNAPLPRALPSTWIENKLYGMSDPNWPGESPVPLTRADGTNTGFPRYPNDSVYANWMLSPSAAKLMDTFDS
T3 sequence (P37173 23-567): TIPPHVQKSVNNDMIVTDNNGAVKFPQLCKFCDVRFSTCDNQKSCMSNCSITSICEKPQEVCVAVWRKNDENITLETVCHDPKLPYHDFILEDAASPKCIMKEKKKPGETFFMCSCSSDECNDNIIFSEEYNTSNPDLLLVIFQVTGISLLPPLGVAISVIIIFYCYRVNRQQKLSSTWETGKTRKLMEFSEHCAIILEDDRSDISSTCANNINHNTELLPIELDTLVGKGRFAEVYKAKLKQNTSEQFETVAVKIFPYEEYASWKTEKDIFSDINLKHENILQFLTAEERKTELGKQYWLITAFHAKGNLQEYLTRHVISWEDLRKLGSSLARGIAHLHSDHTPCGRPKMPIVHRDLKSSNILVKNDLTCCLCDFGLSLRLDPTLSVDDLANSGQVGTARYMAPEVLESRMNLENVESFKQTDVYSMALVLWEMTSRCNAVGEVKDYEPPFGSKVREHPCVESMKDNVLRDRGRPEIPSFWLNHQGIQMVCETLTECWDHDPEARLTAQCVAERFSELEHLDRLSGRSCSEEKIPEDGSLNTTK
T11 sequence (P12931 whole entry): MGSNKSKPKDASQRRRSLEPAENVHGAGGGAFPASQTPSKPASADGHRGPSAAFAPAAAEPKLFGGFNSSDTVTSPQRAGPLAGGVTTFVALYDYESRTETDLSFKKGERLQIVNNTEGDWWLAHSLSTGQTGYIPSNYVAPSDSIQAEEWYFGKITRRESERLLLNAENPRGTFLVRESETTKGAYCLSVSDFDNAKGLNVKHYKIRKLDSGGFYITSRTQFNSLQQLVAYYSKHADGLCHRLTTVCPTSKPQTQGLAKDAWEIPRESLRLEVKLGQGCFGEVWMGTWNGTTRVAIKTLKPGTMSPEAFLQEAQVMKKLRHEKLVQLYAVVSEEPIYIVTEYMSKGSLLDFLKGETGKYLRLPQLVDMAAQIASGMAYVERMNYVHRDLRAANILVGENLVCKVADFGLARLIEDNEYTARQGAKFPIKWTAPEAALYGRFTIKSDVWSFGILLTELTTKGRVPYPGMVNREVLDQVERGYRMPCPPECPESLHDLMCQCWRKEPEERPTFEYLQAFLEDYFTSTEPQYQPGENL
T10 sequence (Q5TCX8 whole entry): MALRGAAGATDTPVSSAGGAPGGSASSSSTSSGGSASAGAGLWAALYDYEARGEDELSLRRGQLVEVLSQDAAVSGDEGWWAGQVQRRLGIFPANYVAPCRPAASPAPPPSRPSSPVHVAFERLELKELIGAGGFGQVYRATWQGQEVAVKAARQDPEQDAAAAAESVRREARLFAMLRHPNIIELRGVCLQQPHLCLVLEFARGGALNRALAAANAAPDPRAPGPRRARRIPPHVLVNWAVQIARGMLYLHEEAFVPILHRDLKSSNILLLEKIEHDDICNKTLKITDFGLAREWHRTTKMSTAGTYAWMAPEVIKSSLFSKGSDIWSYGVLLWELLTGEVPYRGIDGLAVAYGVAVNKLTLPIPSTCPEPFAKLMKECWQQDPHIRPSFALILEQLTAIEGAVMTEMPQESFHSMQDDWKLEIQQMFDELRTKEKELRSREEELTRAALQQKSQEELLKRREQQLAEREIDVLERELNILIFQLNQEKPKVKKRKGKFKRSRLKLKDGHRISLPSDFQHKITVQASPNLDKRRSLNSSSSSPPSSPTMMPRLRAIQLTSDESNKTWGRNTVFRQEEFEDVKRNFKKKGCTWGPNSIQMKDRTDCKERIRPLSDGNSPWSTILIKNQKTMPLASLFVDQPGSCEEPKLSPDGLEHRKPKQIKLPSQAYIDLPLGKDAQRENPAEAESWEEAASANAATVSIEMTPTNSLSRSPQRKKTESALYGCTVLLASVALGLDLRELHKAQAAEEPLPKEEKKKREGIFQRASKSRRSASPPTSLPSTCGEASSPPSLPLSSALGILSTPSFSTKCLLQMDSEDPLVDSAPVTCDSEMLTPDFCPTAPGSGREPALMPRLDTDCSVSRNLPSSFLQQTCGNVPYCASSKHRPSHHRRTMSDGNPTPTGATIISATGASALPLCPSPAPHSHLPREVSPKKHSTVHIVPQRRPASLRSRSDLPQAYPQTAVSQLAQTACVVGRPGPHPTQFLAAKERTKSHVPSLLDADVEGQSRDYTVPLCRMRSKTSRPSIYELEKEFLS

Compound	remaining activity at 10 µM (382 unique human kinases [1]) [%]	remaining activity at 10 µM (382 unique human kinases [2]) [%]	remaining activity at 10 µM (382 unique human kinases [3]) [%]	remaining activity at 10 µM (382 unique human kinases [4]) [%]	remaining activity at 10 µM (382 unique human kinases [5]) [%]	remaining activity at 10 µM (382 unique human kinases [6]) [%]	remaining activity at 10 µM (382 unique human kinases [7]) [%]	remaining activity at 10 µM (382 unique human kinases [8]) [%]	remaining activity at 10 µM (382 unique human kinases [9]) [%]	remaining activity at 10 µM (382 unique human kinases [10]) [%]	remaining activity at 10 µM (382 unique human kinases [11]; [13]) [%]	remaining activity at 10 µM (382 unique human kinases [12]) [%]	further results
CC(C)c1cc(-c2n[nH]c(=O)n2-c2ccc3c(ccn3C)c2)c(O)cc1O [Ganetespib (STA9090)]	84.6	88.8	92.9	70.3	73	95.4							
CCNC(=O)c1noc(-c2cc(C(C)C)c(O)cc2O)c1-c1ccc(CN2CCOCC2)cc1 [Luminespib]							99.3	111	103	101	36.4	104	% Enzyme Activity (relative to DMSO controls) (382 unique human kinases [7]): 98.18%; % Enzyme Activity (relative to DMSO controls) (382 unique human kinases [8]): 105.36%; % Enzyme Activity (relative to DMSO controls) (382 unique human kinases [9]): 102.58%; % Enzyme Activity (relative to DMSO controls) (382 unique human kinases [10]): 99.12%; % Enzyme Activity (relative to DMSO controls) (382 unique human kinases [11]; compound 10 uM): 33.43%; % Enzyme Activity (relative to DMSO controls) (382 unique human kinases [12]): 100.88%
CCNC(=O)c1noc(-c2cc(C(C)C)c(O)cc2O)c1-c1ccc(CN2CCOCC2)cc1 [Luminespib (AUY-922)]	100	97	129	74.1	104	79.8							% Enzyme Activity (relative to DMSO controls) (382 unique human kinases [1]): 99.10%; % Enzyme Activity (relative to DMSO controls) (382 unique human kinases [2]): 96.48%; % Enzyme Activity (relative to DMSO controls) (382 unique human kinases [3]): 124.56%; % Enzyme Activity (relative to DMSO controls) (382 unique human kinases [4]): 73.41%; % Enzyme Activity (relative to DMSO controls) (382 unique human kinases [5]): 102.69%; % Enzyme Activity (relative to DMSO controls) (382 unique human kinases [6]): 77.60%
CC(C)c1cc(-c2n[nH]c(=O)n2-c2ccc3c(ccn3C)c2)c(O)cc1O [Ganetespib]							105	56.4	92.1	141	9.14	42	remaining activity at 1 µM (382 unique human kinases [11]; compound 1 uM, read-out: % Enzyme Activity (relative to DMSO controls)): 38.8%

Reference: paper PMC8550792, “Evolution of kinase polypharmacology across HSP90 drug discovery” (Cell Chemical Biology, 2021)
